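These data come from cells grown in 96-well plates and exposed to compound for 48 hours at five concentrations. Definition used: TGI = concentration required for complete inhibition of growth.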
Key:
Experiment in all cases: NCI anticancer screen, dose series, 48 h
SN12C renal = test system: SN12C renal
CAKI-1 renal = test system: CAKI-1 renal
HS 578T breast = test system: HS 578T breast
HCC-2998 colon = test system: HCC-2998 colon
UACC-62 melanoma = test system: UACC-62 melanoma
HCT-116 colon = test system: HCT-116 colon
OVCAR-4 ovarian = test system: OVCAR-4 ovarian
SW-620 colon = test system: SW-620 colon
HT29 colon = test system: HT29 colon
SK-MEL-2 melanoma = test system: SK-MEL-2 melanoma
786-0 renal = test system: 786-0 renal
EKVX NSCLC = test system: EKVX NSCLC
T-47D breast = test system: T-47D breast
SNB-75 CNS = test system: SNB-75 CNS
MDA-N = test system: MDA-N
MDA-MB-435 = test system: MDA-MB-435
SNB-19 CNS = test system: SNB-19 CNS
IGROV1 ovarian = test system: IGROV1 ovarian
OVCAR-5 ovarian = test system: OVCAR-5 ovarian
HOP-92 NSCLC = test system: HOP-92 NSCLC
MDA-MB-231 breast = test system: MDA-MB-231 breast
KM12 colon = test system: KM12 colon
LOX IMVI melanoma = test system: LOX IMVI melanoma
ACHN renal = test system: ACHN renal
M14 melanoma = test system: M14 melanoma
UO-31 renal = test system: UO-31 renal
SK-MEL-5 melanoma = test system: SK-MEL-5 melanoma
NCI-H226 lung = test system: NCI-H226 lung
OVCAR-8 ovarian = test system: OVCAR-8 ovarian
RXF 393 renal = test system: RXF 393 renal
SK-OV-3 ovarian = test system: SK-OV-3 ovarian
A549 NSCLC = test system: A549 NSCLC
COLO 205 colon = test system: COLO 205 colon
OVCAR-3 ovarian = test system: OVCAR-3 ovarian
NCI/ADR-RES ovarian = test system: NCI/ADR-RES ovarian
K-562 leukemia = test system: K-562 leukemia
MALME-3M melanoma = test system: MALME-3M melanoma
SF-295 CNS = test system: SF-295 CNS
NCI-H460 lung = test system: NCI-H460 lung
HCT-15 colon = test system: HCT-15 colon
HL-60(TB) leukemia = test system: HL-60(TB) leukemia
U251 CNS = test system: U251 CNS
A498 renal = test system: A498 renal
SR leukemia = test system: SR leukemia
CCRF-CEM leukemia = test system: CCRF-CEM leukemia
SK-MEL-28 melanoma = test system: SK-MEL-28 melanoma
NCI-H23 lung = test system: NCI-H23 lung
SF-268 CNS = test system: SF-268 CNS
SF-539 CNS = test system: SF-539 CNS
DU-145 prostate = test system: DU-145 prostate
NCI-H522 lung = test system: NCI-H522 lung
HOP-62 NSCLC = test system: HOP-62 NSCLC
TK-10 renal = test system: TK-10 renal
MOLT-4 leukemia = test system: MOLT-4 leukemia
RPMI-8226 leukemia = test system: RPMI-8226 leukemia
MCF7 breast = test system: MCF7 breast
BT-549 breast = test system: BT-549 breast
PC-3 prostate = test system: PC-3 prostate
UACC-257 melanoma = test system: UACC-257 melanoma

## CCOP(=O)(OCC)C(Nc1ccc(Br)cc1)c1cccc([N+](=O)[O-])c1 (configuration not stated)
SN12C renal
  TGI: 37.8 µM
CAKI-1 renal
  TGI: 49.7 µM
HS 578T breast
  TGI: 61.1 µM
HCC-2998 colon
  TGI: 32.4 µM
UACC-62 melanoma
  TGI: 29.6 µM
HCT-116 colon
  TGI: 25.6 µM
OVCAR-4 ovarian
  TGI: > 100 µM
SW-620 colon
  TGI: 35.4 µM
HT29 colon
  TGI: 34.3 µM
SK-MEL-2 melanoma
  TGI: 31.4 µM
786-0 renal
  TGI: 44.8 µM
EKVX NSCLC
  TGI: 10.8 µM
T-47D breast
  TGI: 37.1 µM
SNB-75 CNS
  TGI: > 100 µM
MDA-N
  TGI: 37.2 µM
MDA-MB-435
  TGI: 36.7 µM
SNB-19 CNS
  TGI: 47.6 µM
IGROV1 ovarian
  TGI: 76.5 µM
OVCAR-5 ovarian
  TGI: 67.6 µM
HOP-92 NSCLC
  TGI: 42.2 µM
MDA-MB-231 breast
  TGI: 43.2 µM
KM12 colon
  TGI: 32.1 µM
LOX IMVI melanoma
  TGI: 23.3 µM
ACHN renal
  TGI: 47.1 µM
M14 melanoma
  TGI: 37 µM
UO-31 renal
  TGI: 22.7 µM
SK-MEL-5 melanoma
  TGI: 28.3 µM
NCI-H226 lung
  TGI: 38.3 µM
OVCAR-8 ovarian
  TGI: > 100 µM
RXF 393 renal
  TGI: 31.5 µM
SK-OV-3 ovarian
  TGI: 41.5 µM
A549 NSCLC
  TGI: 34.7 µM
COLO 205 colon
  TGI: 26 µM
OVCAR-3 ovarian
  TGI: 35.6 µM
NCI/ADR-RES ovarian
  TGI: 44.8 µM
K-562 leukemia
  TGI: 38.6 µM
MALME-3M melanoma
  TGI: 37.9 µM
SF-295 CNS
  TGI: 28.3 µM
NCI-H460 lung
  TGI: 29.3 µM
HCT-15 colon
  TGI: 31.7 µM
HL-60(TB) leukemia
  TGI: 55.1 µM
U251 CNS
  TGI: 36.1 µM
A498 renal
  TGI: 31.1 µM
SR leukemia
  TGI: 56.2 µM
CCRF-CEM leukemia
  TGI: 49.1 µM
SK-MEL-28 melanoma
  TGI: 60 µM
NCI-H23 lung
  TGI: 53 µM
SF-268 CNS
  TGI: 43.6 µM
SF-539 CNS
  TGI: 45.6 µM
DU-145 prostate
  TGI: > 100 µM
NCI-H522 lung
  TGI: 28 µM
HOP-62 NSCLC
  TGI: 39.8 µM
TK-10 renal
  TGI: 88.1 µM
MOLT-4 leukemia
  TGI: 47.8 µM
RPMI-8226 leukemia
  TGI: 98.2 µM

## C/C=C\C(CC(=O)NCCC1CN(S(=O)(=O)c2ccc(C)cc2)c2ccccc21)CC(=O)OC (configuration not stated)
CAKI-1 renal
  TGI: > 100 µM
HS 578T breast
  TGI: > 100 µM
HCC-2998 colon
  TGI: > 100 µM
UACC-62 melanoma
  TGI: > 100 µM
MCF7 breast
  TGI: > 100 µM
BT-549 breast
  TGI: > 100 µM
HCT-116 colon
  TGI: > 100 µM
OVCAR-4 ovarian
  TGI: > 100 µM
SW-620 colon
  TGI: > 100 µM
HT29 colon
  TGI: > 100 µM
SK-MEL-2 melanoma
  TGI: > 100 µM
786-0 renal
  TGI: > 100 µM
EKVX NSCLC
  TGI: > 100 µM
T-47D breast
  TGI: > 100 µM
SNB-75 CNS
  TGI: > 100 µM
MDA-N
  TGI: > 100 µM
MDA-MB-435
  TGI: > 100 µM
PC-3 prostate
  TGI: > 100 µM
SNB-19 CNS
  TGI: > 100 µM
IGROV1 ovarian
  TGI: > 100 µM
OVCAR-5 ovarian
  TGI: > 100 µM
HOP-92 NSCLC
  TGI: > 100 µM
MDA-MB-231 breast
  TGI: > 100 µM
KM12 colon
  TGI: > 100 µM
ACHN renal
  TGI: > 100 µM
M14 melanoma
  TGI: > 100 µM
UO-31 renal
  TGI: > 100 µM
SK-MEL-5 melanoma
  TGI: > 100 µM
OVCAR-8 ovarian
  TGI: > 100 µM
RXF 393 renal
  TGI: > 100 µM
SK-OV-3 ovarian
  TGI: > 100 µM
A549 NSCLC
  TGI: > 100 µM
COLO 205 colon
  TGI: > 100 µM
OVCAR-3 ovarian
  TGI: > 100 µM
NCI/ADR-RES ovarian
  TGI: > 100 µM
K-562 leukemia
  TGI: > 100 µM
MALME-3M melanoma
  TGI: > 100 µM
SF-295 CNS
  TGI: > 100 µM
NCI-H460 lung
  TGI: > 100 µM
HCT-15 colon
  TGI: > 100 µM
U251 CNS
  TGI: > 100 µM
A498 renal
  TGI: > 100 µM
UACC-257 melanoma
  TGI: > 100 µM
SK-MEL-28 melanoma
  TGI: > 100 µM
NCI-H23 lung
  TGI: > 100 µM
SF-268 CNS
  TGI: > 100 µM
DU-145 prostate
  TGI: > 100 µM
NCI-H522 lung
  TGI: > 100 µM
HOP-62 NSCLC
  TGI: > 100 µM
TK-10 renal
  TGI: > 100 µM
MOLT-4 leukemia
  TGI: > 100 µM
RPMI-8226 leukemia
  TGI: > 100 µM

## COc1ccc(-n2cnc3c2NC(C)(C)N=C3C(N)=O)c(OC)c1
SN12C renal
  TGI: > 100 µM
CAKI-1 renal
  TGI: > 100 µM
HS 578T breast
  TGI: > 100 µM
HCC-2998 colon
  TGI: > 100 µM
UACC-62 melanoma
  TGI: > 100 µM
MCF7 breast
  TGI: > 100 µM
HCT-116 colon
  TGI: > 100 µM
OVCAR-4 ovarian
  TGI: > 100 µM
SW-620 colon
  TGI: > 100 µM
HT29 colon
  TGI: > 100 µM
786-0 renal
  TGI: > 100 µM
EKVX NSCLC
  TGI: > 100 µM
T-47D breast
  TGI: > 100 µM
SNB-75 CNS
  TGI: > 100 µM
MDA-N
  TGI: > 100 µM
MDA-MB-435
  TGI: > 100 µM
PC-3 prostate
  TGI: > 100 µM
SNB-19 CNS
  TGI: > 100 µM
IGROV1 ovarian
  TGI: > 100 µM
OVCAR-5 ovarian
  TGI: > 100 µM
HOP-92 NSCLC
  TGI: > 100 µM
MDA-MB-231 breast
  TGI: > 100 µM
KM12 colon
  TGI: > 100 µM
LOX IMVI melanoma
  TGI: > 100 µM
ACHN renal
  TGI: > 100 µM
M14 melanoma
  TGI: > 100 µM
SK-MEL-5 melanoma
  TGI: > 100 µM
NCI-H226 lung
  TGI: > 100 µM
OVCAR-8 ovarian
  TGI: > 100 µM
RXF 393 renal
  TGI: > 100 µM
SK-OV-3 ovarian
  TGI: > 100 µM
A549 NSCLC
  TGI: > 100 µM
COLO 205 colon
  TGI: > 100 µM
OVCAR-3 ovarian
  TGI: > 100 µM
NCI/ADR-RES ovarian
  TGI: > 100 µM
K-562 leukemia
  TGI: > 100 µM
MALME-3M melanoma
  TGI: > 100 µM
SF-295 CNS
  TGI: > 100 µM
NCI-H460 lung
  TGI: > 100 µM
HCT-15 colon
  TGI: > 100 µM
HL-60(TB) leukemia
  TGI: > 100 µM
U251 CNS
  TGI: > 100 µM
A498 renal
  TGI: > 100 µM
SR leukemia
  TGI: > 100 µM
CCRF-CEM leukemia
  TGI: > 100 µM
UACC-257 melanoma
  TGI: > 100 µM
SK-MEL-28 melanoma
  TGI: > 100 µM
NCI-H23 lung
  TGI: > 100 µM
SF-268 CNS
  TGI: > 100 µM
SF-539 CNS
  TGI: > 100 µM
DU-145 prostate
  TGI: > 100 µM
NCI-H522 lung
  TGI: > 100 µM
HOP-62 NSCLC
  TGI: > 100 µM
TK-10 renal
  TGI: > 100 µM
RPMI-8226 leukemia
  TGI: > 100 µM

— PubChem BioAssay (NCI)
